Results reported in patent US20190282600A1, “COMBINATION THERAPIES TARGETING TERT DEPENDENCY FOR CANCER THERAPY” (The Wistar Institute of Anatomy and Biology, priority 2018, published 2019).

Columns and labels:
[1] = test system: NRAS mutant melanoma cells; assay: Reactive oxygen species by flow cytometry (H2DCFDA, MitoSox Red); type: cell-based, Human; settings: 1 μM 6-thio-dG for 7 days
Method: FIGS. 2a to 2c show NRAS^mut melanoma cells (FIG. 2a), BRAF-V600E/NRAS mutant cells derived from melanoma patients resistant to BRAF/MEK inhibitors (FIG. 2b), or non-transformed melanocytes and fibroblasts (FIG. 2c) were treated with 6-thio-dG for 7 days. Cell viability was measured by Alamar Blue assay and calculated relative to DMSO-treated cells. […] Cell death was assessed by PSVUe staining. Percent of apoptotic cells is shown. […] Mean TRF length expressed as kilobase pairs is indicated at the bottom. […] FIG. 2g provides a bar graph showing that DNA damage was assessed by γH2AX staining. […] Tumor volume was measured and average tumor volume (n=4) ±SEM was plotted vs. time.
FIGS. 3a to 3g provides graphs showing that telomere dysfunction enhances oxidative stress leading to upregulation of an antioxidant program. […] Mitochondrial superoxide production was measured by MitoSox Red fluorescence (FIGS. 3c, and 3d) and expressed as fluorescence relative to vector or DMSO controls. […] Transduced M93-047 cells were treated with DMSO or 1 μM of 6-thio-dG and cell death was assessed by Annexin V/PI straining. […] Transduced cells were treated with increasing doses (1, 2.5 and 5 μM) of 6-thio-dG for 7 days and cell death was assessed. […]
General or mitochondrial specific ROS were measured by flow cytometry H2DCFDA or MitoSoxRed (Invitrogen, Waltham, Mass.) following manufacturer's specifications.

[2] = test system: NRAS-WT/BRAF-WT melanoma cells; assay: Cell death by Annexin V/PI flow cytometry; type: cell-based, Human; settings: 1 μM 6-thio-dG, 5 μM Gam, single agents or in combination
Method: (§1) FIGS. 5a to 5e provide bar graphs showing that combination treatment with 6-Thio-dG and Gamitrinib (Gam) triggers death selectively in NRAS mutant tumor cells. NRAS-WT/BRAF-WT melanoma cells (FIG. 5a), NRAS-WT/BRAF-mut melanoma cells (FIG. 5b), NRAS mutant neuroblastoma cells (FIG. 5c), NRAS-WT/KRAS-mutant colon cancer cells (FIG. 5d), and NRAS-WT/KRAS-mutant lung cancer cells were treated with 1 μM 6-thio-dG for 5 days (FIG. 5e). At day 5, culture medium was replaced and cells treated with 1 μM 6-thio-dG plus 5 μM Gam for two more days. Cells were stained with Annexin V and PI and percent cell death was determined by FACS. Data represent average of three independent experiments +/−SEM; p values were calculated using un-paired Student's t-test; *p<0.05; **p<0.001.
(§2) Cells were seeded in 96-well plates and treated with drugs. After 6 days, cell viability was assessed following 6h incubation with […] Alamar Blue (ThermoFisherScientific, Philadelphia, Pa.) by measuring fluorescence using an EnVision Xcite Multilabel plate reader (Perkin Elmer, Waltham, Mass.). Cell death was determined by flow cytometry using PSVue-643 (Molecular Targeting Technologies) or Annexin V (640919, Biolegend, San Diego, Calif.) and Propidium Iodide (Sigma) staining. Samples were analyzed using a BD LSRII flow cytometer (BD Biosciences, San Jose, Calif.).

[3] = test system: KRAS mutant A549 cells; assay: Cell death by Annexin V/PI flow cytometry; type: cell-based; settings: 1 μM 6-thio-dG, 5 μM Gam
Method: as §1, §2

[4] = test system: KRAS mutant HCT116 cells; assay: Cell death by Annexin V/PI flow cytometry; type: cell-based; settings: 1 μM 6-thio-dG, 5 μM Gam
Method: as §1, §2

[5] = test system: NRAS mutant SKNAS neuroblastoma cells; assay: Cell death by Annexin V/PI flow cytometry; type: cell-based; settings: 1 μM 6-thio-dG, 5 μM Gam, single agents or in combination
Method: as §1, §2

[6] = mice; cited from earlier work

Nc1nc2c(ncn2[C@H]2C[C@H](O)[C@@H](CO)O2)c(=S)[nH]1 [6-thio-dG, 6-thio-2′-deoxyguanosine]
ROS levels (H2DCFDA) [1]: increased levels
mitochondrial ROS levels (MitoSox Red) [1]: increased mitochondrial ROS levels
cell death [2]: did not induce cell death
cell death [3]: did not induce substantial death
cell death [4]: did not induce substantial death
cell death [5]: triggered significant death
effect on alanine aminotransferase (ALT) [6]: no significant effects
effect on aspartate aminotransferase (AST) [6]: no significant effects
effect on creatinine levels [6]: no significant effects
effect on red blood cells [6]: no significant effects
effect on white blood cells [6]: no significant effects
